Experimental data reported in ChEMBL document CHEMBL1141080, “Discovery of potent orally active thrombin receptor (protease activated receptor 1) antagonists as novel antithrombotic agents” (J Med Chem, 2005).

Tested on: not listed separately
Assay: Half life of compound upon iv administration in rat
Type: ADME, organism-based
Settings: in vivo; call rule not given here

Compound	half-life
CCc1cccc(/C=C/[C@H]2[C@@H]3CCCC[C@H]3C[C@H]3C(=O)O[C@H](C)[C@@H]23)n1	< 1 h

Tested on: not listed separately
Assay: Bioavailability of compound upon oral administration in rat
Type: ADME, organism-based
Settings: in vivo

Compound	bioavailability
CCc1cccc(/C=C/[C@H]2[C@@H]3CCCC[C@H]3C[C@H]3C(=O)O[C@H](C)[C@@H]23)n1	< 3%

Tested on: not listed separately
Assay: Bioavailability of compound after oral administration in monkey
Settings: cercopithecidae, in vivo

Compound	bioavailability
C[C@H]1OC(=O)[C@@H]2C[C@@H]3CCCC[C@H]3[C@H](/C=C/c3ccc(-c4cccc(C(F)(F)F)c4)cn3)[C@H]12	50%

Target: T1, Proteinase-activated receptor 1 (Homo sapiens, UniProt P25116)
T1 sequence (P25116 whole entry): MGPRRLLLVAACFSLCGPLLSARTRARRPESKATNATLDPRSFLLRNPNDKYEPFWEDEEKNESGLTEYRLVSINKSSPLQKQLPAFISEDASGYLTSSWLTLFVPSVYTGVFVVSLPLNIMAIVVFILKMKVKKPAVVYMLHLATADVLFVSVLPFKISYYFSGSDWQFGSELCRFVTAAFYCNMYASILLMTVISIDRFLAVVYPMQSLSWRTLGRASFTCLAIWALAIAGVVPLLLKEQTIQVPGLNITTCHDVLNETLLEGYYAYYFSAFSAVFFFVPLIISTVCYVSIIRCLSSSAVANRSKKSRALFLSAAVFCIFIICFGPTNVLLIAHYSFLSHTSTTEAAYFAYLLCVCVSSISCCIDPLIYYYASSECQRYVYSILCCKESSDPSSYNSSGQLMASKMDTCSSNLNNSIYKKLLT
Assay: not given
Settings: not given

Compound	IC50
C[C@H]1OC(=O)[C@@H]2C[C@@H]3CCCC[C@H]3[C@H](/C=C/c3ccc(-c4ccccc4)cn3)[C@H]12	27 nM
C[C@H]1OC(=O)[C@@H]2C[C@@H]3CCCC[C@H]3[C@H](/C=C/c3ccc(-c4cccc(S(N)(=O)=O)c4)cn3)[C@H]12	100 nM
Cc1cccc(-c2ccc(/C=C/[C@H]3[C@@H]4CCCC[C@H]4C[C@H]4C(=O)O[C@H](C)[C@@H]34)nc2)c1	13 nM
CC(C)c1cccc(-c2ccc(/C=C/[C@H]3[C@@H]4CCCC[C@H]4C[C@H]4C(=O)O[C@H](C)[C@@H]34)nc2)c1	19 nM
C[C@H]1OC(=O)[C@@H]2C[C@@H]3CCCC[C@H]3[C@H](/C=C/c3ccc(-c4cccc(F)c4)cn3)[C@H]12	35 nM
C[C@H]1OC(=O)[C@@H]2C[C@@H]3CCCC[C@H]3[C@H](/C=C/c3ccc(-c4cccc(Br)c4)cn3)[C@H]12	25 nM
C[C@H]1OC(=O)[C@@H]2C[C@@H]3CCCC[C@H]3[C@H](/C=C/c3ccc(-c4ccccc4F)cn3)[C@H]12	22 nM
C[C@H]1OC(=O)[C@@H]2C[C@@H]3CCCC[C@H]3[C@H](/C=C/c3ccc(-c4cccc(Cl)c4)cn3)[C@H]12	10 nM
COc1ccccc1-c1ccc(/C=C/[C@H]2[C@@H]3CCCC[C@H]3C[C@H]3C(=O)O[C@H](C)[C@@H]23)nc1	11 nM
C[C@H]1OC(=O)[C@@H]2C[C@@H]3CCCC[C@H]3[C@H](/C=C/c3ccc(-c4ccccc4C(F)(F)F)cn3)[C@H]12	46 nM
COc1cccc(-c2ccc(/C=C/[C@H]3[C@@H]4CCCC[C@H]4C[C@H]4C(=O)O[C@H](C)[C@@H]34)nc2)c1	28 nM
C[C@H]1OC(=O)[C@@H]2C[C@@H]3CCCC[C@H]3[C@H](/C=C/c3ccc(-c4ccccc4Cl)cn3)[C@H]12	26 nM
CCOC(=O)c1ccccc1-c1ccc(/C=C/[C@H]2[C@@H]3CCCC[C@H]3C[C@H]3C(=O)O[C@H](C)[C@@H]23)nc1	44 nM
C[C@H]1OC(=O)[C@@H]2C[C@@H]3CCCC[C@H]3[C@H](/C=C/c3ccc(-c4cccc(C#N)c4)cn3)[C@H]12	25 nM
Cc1ccc(-c2ccc(/C=C/[C@H]3[C@@H]4CCCC[C@H]4C[C@H]4C(=O)O[C@H](C)[C@@H]34)nc2)cc1 (racemic)	325 nM
CCCCc1cccc(/C=C/[C@H]2[C@@H]3CCCC[C@H]3C[C@H]3C(=O)O[C@H](C)[C@@H]23)n1 (racemic)	143 nM
COc1ccc(/C=C/[C@H]2[C@@H]3CCCC[C@H]3C[C@H]3C(=O)O[C@H](C)[C@@H]23)nc1 (racemic)	325 nM
C[C@H]1OC(=O)[C@@H]2C[C@@H]3CCCC[C@H]3[C@H](/C=C/c3ccc(Cc4ccccc4)cn3)[C@H]12 (racemic)	3680 nM
C[C@H]1OC(=O)[C@@H]2C[C@@H]3CCCC[C@H]3[C@H](/C=C/c3cccc(CO)n3)[C@H]12 (racemic)	1500 nM

Compound	IC50
C[C@H]1OC(=O)[C@@H]2C[C@@H]3CCCC[C@H]3[C@H](/C=C/c3ccccn3)[C@H]12 (racemic)	4000 nM
COCc1cccc(/C=C/[C@H]2[C@@H]3CCCC[C@H]3C[C@H]3C(=O)O[C@H](C)[C@@H]23)n1 (racemic)	850 nM
C[C@H]1OC(=O)[C@@H]2C[C@@H]3CCCC[C@H]3[C@H](/C=C/c3cccc(Cc4ccccc4)n3)[C@H]12 (racemic)	900 nM
C=Cc1cccc(/C=C/[C@H]2[C@@H]3CCCC[C@H]3C[C@H]3C(=O)O[C@H](C)[C@@H]23)n1 (racemic)	150 nM
CNc1cccc(/C=C/[C@H]2[C@@H]3CCCC[C@H]3C[C@H]3C(=O)O[C@H](C)[C@@H]23)n1 (racemic)	1250 nM
COc1ccc(-c2ccc(/C=C/[C@H]3[C@@H]4CCCC[C@H]4C[C@H]4C(=O)O[C@H](C)[C@@H]34)nc2)cc1 (racemic)	204 nM
CC(C)c1cccc(/C=C/[C@H]2[C@@H]3CCCC[C@H]3C[C@H]3C(=O)O[C@H](C)[C@@H]23)n1 (racemic)	725 nM
CC(C)Cc1cccc(/C=C/[C@H]2[C@@H]3CCCC[C@H]3C[C@H]3C(=O)O[C@H](C)[C@@H]23)n1 (racemic)	550 nM
C[C@H]1OC(=O)[C@@H]2C[C@@H]3CCCC[C@H]3[C@H](/C=C/c3ccc(-c4ccc(F)cc4)cn3)[C@H]12 (racemic)	467 nM
Cc1ccc(/C=C/[C@H]2[C@@H]3CCCC[C@H]3C[C@H]3C(=O)O[C@H](C)[C@@H]23)nc1 (racemic)	1100 nM
C[C@H]1OC(=O)[C@@H]2C[C@@H]3CCCC[C@H]3[C@H](/C=C/c3ccc(-c4ccc(C(F)(F)F)cc4)cn3)[C@H]12 (racemic)	> 300 nM
C[C@H]1OC(=O)[C@@H]2C[C@@H]3CCCC[C@H]3[C@H](/C=C/c3cccc(C4CC4)n3)[C@H]12 (racemic)	210 nM
CCCc1cccc(/C=C/[C@H]2[C@@H]3CCCC[C@H]3C[C@H]3C(=O)O[C@H](C)[C@@H]23)n1 (racemic)	250 nM
Cc1cccnc1/C=C/[C@H]1[C@@H]2CCCC[C@H]2C[C@H]2C(=O)O[C@H](C)[C@@H]12 (racemic)	> 5000 nM
C[C@H]1OC(=O)[C@@H]2C[C@@H]3CCCC[C@H]3[C@H](/C=C/c3ccc(-c4ccc(Cl)cc4)cn3)[C@H]12 (racemic)	1000 nM
C[C@H]1OC(=O)[C@@H]2C[C@@H]3CCCC[C@H]3[C@H](/C=C/c3ccc(OCc4ccccc4)cn3)[C@H]12 (racemic)	19 nM
Cc1ccnc(/C=C/[C@H]2[C@@H]3CCCC[C@H]3C[C@H]3C(=O)O[C@H](C)[C@@H]23)c1 (racemic)	2100 nM
CCCCCCc1cccc(/C=C/[C@H]2[C@@H]3CCCC[C@H]3C[C@H]3C(=O)O[C@H](C)[C@@H]23)n1 (racemic)	3500 nM

Tested on: not listed separately
Assay: Maximum plasma concentration after oral administration to rats in 20% hydroxypropyl-beta-cyclodextrin after 4 hours
Settings: rat

Compound	Cmax
C[C@H]1OC(=O)[C@@H]2C[C@@H]3CCCC[C@H]3[C@H](/C=C/c3ccc(-c4ccccc4)cn3)[C@H]12	453 nM
Cc1cccc(-c2ccc(/C=C/[C@H]3[C@@H]4CCCC[C@H]4C[C@H]4C(=O)O[C@H](C)[C@@H]34)nc2)c1	380 nM
CC(C)c1cccc(-c2ccc(/C=C/[C@H]3[C@@H]4CCCC[C@H]4C[C@H]4C(=O)O[C@H](C)[C@@H]34)nc2)c1	289 nM
C[C@H]1OC(=O)[C@@H]2C[C@@H]3CCCC[C@H]3[C@H](/C=C/c3ccc(-c4cccc(F)c4)cn3)[C@H]12	1520 nM
C[C@H]1OC(=O)[C@@H]2C[C@@H]3CCCC[C@H]3[C@H](/C=C/c3ccc(-c4ccccc4F)cn3)[C@H]12	1080 nM
C[C@H]1OC(=O)[C@@H]2C[C@@H]3CCCC[C@H]3[C@H](/C=C/c3ccc(-c4cccc(Cl)c4)cn3)[C@H]12	1460 nM
COc1ccccc1-c1ccc(/C=C/[C@H]2[C@@H]3CCCC[C@H]3C[C@H]3C(=O)O[C@H](C)[C@@H]23)nc1	419 nM
C[C@H]1OC(=O)[C@@H]2C[C@@H]3CCCC[C@H]3[C@H](/C=C/c3ccc(-c4cccc(C(F)(F)F)c4)cn3)[C@H]12	2300 nM
C[C@H]1OC(=O)[C@@H]2C[C@@H]3CCCC[C@H]3[C@H](/C=C/c3ccc(-c4ccccc4C(F)(F)F)cn3)[C@H]12	1000 nM
COc1cccc(-c2ccc(/C=C/[C@H]3[C@@H]4CCCC[C@H]4C[C@H]4C(=O)O[C@H](C)[C@@H]34)nc2)c1	20 nM
C[C@H]1OC(=O)[C@@H]2C[C@@H]3CCCC[C@H]3[C@H](/C=C/c3ccc(-c4ccccc4Cl)cn3)[C@H]12	1780 nM
Cc1ccccc1-c1ccc(/C=C/[C@H]2[C@@H]3CCCC[C@H]3C[C@H]3C(=O)O[C@H](C)[C@@H]23)nc1	1220 nM

Tested on: not listed separately
Assay: Half life upon intravenous administration in rat
Type: ADME, organism-based
Settings: in vivo

Compound	half-life
C[C@H]1OC(=O)[C@@H]2C[C@@H]3CCCC[C@H]3[C@H](/C=C/c3ccc(-c4cccc(C(F)(F)F)c4)cn3)[C@H]12	3.2 h

Target: T1, Proteinase-activated receptor 1
Assay: not given
Settings: not given
Remark: another data set of the same source

Compound	IC50
COc1cccc(/C=C/[C@H]2[C@@H]3CCCC[C@H]3C[C@H]3C(=O)O[C@H](C)[C@@H]23)n1 (racemic)	Not Active
C[C@H]1OC(=O)[C@@H]2C[C@@H]3CCCC[C@H]3[C@H](/C=C/c3cccc(-c4ccccc4)n3)[C@H]12 (racemic)	Not Active

Tested on: not listed separately
Assay: Area under curve after oral administration to rats in 20% hydroxypropyl-beta-cyclodextrin after 4 hours
Settings: rat, in vivo

Compound	AUC at 4 h
C[C@H]1OC(=O)[C@@H]2C[C@@H]3CCCC[C@H]3[C@H](/C=C/c3ccc(-c4ccccc4)cn3)[C@H]12	0.917 µM·h
Cc1cccc(-c2ccc(/C=C/[C@H]3[C@@H]4CCCC[C@H]4C[C@H]4C(=O)O[C@H](C)[C@@H]34)nc2)c1	0.331 µM·h
CC(C)c1cccc(-c2ccc(/C=C/[C@H]3[C@@H]4CCCC[C@H]4C[C@H]4C(=O)O[C@H](C)[C@@H]34)nc2)c1	0.258 µM·h
C[C@H]1OC(=O)[C@@H]2C[C@@H]3CCCC[C@H]3[C@H](/C=C/c3ccc(-c4cccc(F)c4)cn3)[C@H]12	3.55 µM·h
C[C@H]1OC(=O)[C@@H]2C[C@@H]3CCCC[C@H]3[C@H](/C=C/c3ccc(-c4ccccc4F)cn3)[C@H]12	2.47 µM·h
C[C@H]1OC(=O)[C@@H]2C[C@@H]3CCCC[C@H]3[C@H](/C=C/c3ccc(-c4cccc(Cl)c4)cn3)[C@H]12	4.11 µM·h
COc1ccccc1-c1ccc(/C=C/[C@H]2[C@@H]3CCCC[C@H]3C[C@H]3C(=O)O[C@H](C)[C@@H]23)nc1	0.413 µM·h
C[C@H]1OC(=O)[C@@H]2C[C@@H]3CCCC[C@H]3[C@H](/C=C/c3ccc(-c4cccc(C(F)(F)F)c4)cn3)[C@H]12	6.12 µM·h
C[C@H]1OC(=O)[C@@H]2C[C@@H]3CCCC[C@H]3[C@H](/C=C/c3ccc(-c4ccccc4C(F)(F)F)cn3)[C@H]12	2.35 µM·h
COc1cccc(-c2ccc(/C=C/[C@H]3[C@@H]4CCCC[C@H]4C[C@H]4C(=O)O[C@H](C)[C@@H]34)nc2)c1	0.012 µM·h
C[C@H]1OC(=O)[C@@H]2C[C@@H]3CCCC[C@H]3[C@H](/C=C/c3ccc(-c4ccccc4Cl)cn3)[C@H]12	4.29 µM·h
Cc1ccccc1-c1ccc(/C=C/[C@H]2[C@@H]3CCCC[C@H]3C[C@H]3C(=O)O[C@H](C)[C@@H]23)nc1	2.81 µM·h

Tested on: not listed separately
Assay: Maximum plasma concentration upon oral administration in rat
Settings: not given

Compound	Cmax
C[C@H]1OC(=O)[C@@H]2C[C@@H]3CCCC[C@H]3[C@H](/C=C/c3ccc(-c4cccc(C(F)(F)F)c4)cn3)[C@H]12	1160 nM

Tested on: not listed separately
Assay: Bioavailability of compound after oral administration in rat at a dose of 10 mg/kg
Type: ADME, organism-based
Settings: in vivo

Compound	bioavailability
C[C@H]1OC(=O)[C@@H]2C[C@@H]3CCCC[C@H]3[C@H](/C=C/c3ccc(-c4cccc(C(F)(F)F)c4)cn3)[C@H]12	30%

Tested on: not listed separately
Assay: Half life after intravenous administration in monkey
Type: ADME, organism-based
Settings: cercopithecidae, in vivo

Compound	half-life
C[C@H]1OC(=O)[C@@H]2C[C@@H]3CCCC[C@H]3[C@H](/C=C/c3ccc(-c4cccc(C(F)(F)F)c4)cn3)[C@H]12	12.4 h
